PubChem BioAssay AID2060620 (Molecular Pharmacology Branch, DTP, NCI, 2025)
Several values for one entry are separate records, joined by “and”; a condition that tells them apart may be missing. Equal entries are not always repeated.

Test system: 328373-195-R-J1-PDC complex spheroids, viability % test/control
Test: Anticancer human tumor 328373-195-R-J1-PDC patient-derived head and neck squamous carcinoma cell line growth inhibition [CLK]
Conditions: for viability, T/C: stronger effect = lower value; active = viability on the fitted dose curve at most 10% of control; inactive = the rest
How it was run: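 Patient-derived tumor cells grown as complex spheroids with HUVEC endothelial cells and mesenchymal stem cells, treated with drug combinations. Concentrations descend in half-log steps from near clinical Cmax, or from 10 microM if Cmax unknown.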

[1] = curve of first compound, second compound 0.0316 µM
[2] = curve of first compound, second compound 0.1 µM
[3] = curve of first compound, second compound 0.316 µM
[4] = curve of first compound, second compound 1 µM
[5] = curve of first compound, second compound 3.16 µM
[6] = curve of first compound, second compound 10 µM
[7] = second compound 0.0316 µM, first compound 0.0316 µM
[8] = second compound 0.0316 µM, first compound 0.1 µM
[9] = second compound 0.0316 µM, first compound 0.316 µM
[10] = second compound 0.0316 µM, first compound 1 µM
[11] = second compound 0.1 µM, first compound 0.0316 µM
[12] = second compound 0.1 µM, first compound 0.1 µM
[13] = second compound 0.1 µM, first compound 0.316 µM
[14] = second compound 0.1 µM, first compound 1 µM
[15] = second compound 0.316 µM, first compound 0.0316 µM
[16] = second compound 0.316 µM, first compound 0.1 µM
[17] = second compound 0.316 µM, first compound 0.316 µM
[18] = second compound 0.316 µM, first compound 1 µM
[19] = second compound 1 µM, first compound 0.0316 µM
[20] = second compound 1 µM, first compound 0.1 µM
[21] = second compound 1 µM, first compound 0.316 µM
[22] = second compound 1 µM, first compound 1 µM
[23] = second compound 3.16 µM, first compound 0.0316 µM
[24] = second compound 3.16 µM, first compound 0.1 µM
[25] = second compound 3.16 µM, first compound 0.316 µM
[26] = second compound 3.16 µM, first compound 1 µM
[27] = second compound 10 µM, first compound 0.0316 µM
[28] = second compound 10 µM, first compound 0.1 µM
[29] = second compound 10 µM, first compound 0.316 µM
[30] = second compound 10 µM, first compound 1 µM
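Also: spheroids exposed to the agents for 7 days.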

CCc1c2c(nc3ccc(O)cc13)-c1cc3c(c(=O)n1C2)COC(=O)[C@]3(O)CC + CNC(=O)c1ccc(Nc2nc(OC3CCCC3)c3c(-c4ccc5nc(C)oc5c4)c[nH]c3n2)c(OC)c1
inactive: viability, T/C (second compound 10 µM, first compound 0.00316 µM) 10.2%
active: viability, T/C (second compound 0.0316 µM, first compound 0.00316 µM) 7.71% | viability, T/C (second compound 0.0316 µM, first compound 0.01 µM) 1.63% | viability, T/C [7] 2.84% | viability, T/C [8] 0.67% | viability, T/C [9] 0.38% | viability, T/C [10] 0.09% | viability, T/C (second compound 0.1 µM, first compound 0.00316 µM) 7.73% | viability, T/C (second compound 0.1 µM, first compound 0.01 µM) 1.04% | viability, T/C [11] 2.54% | viability, T/C [12] 0.41% | viability, T/C [13] 1.87% | viability, T/C [14] 2.57% | viability, T/C (second compound 0.316 µM, first compound 0.00316 µM) 7.15% | viability, T/C (second compound 0.316 µM, first compound 0.01 µM) 3.14% | viability, T/C [15] 1.9% | viability, T/C [16] 0.39% | viability, T/C [17] 1.85% | viability, T/C [18] 0.68% | viability, T/C (second compound 1 µM, first compound 0.00316 µM) 5.68% | viability, T/C (second compound 1 µM, first compound 0.01 µM) 1.49% | viability, T/C [19] 1.06% | viability, T/C [20] 0.86% | viability, T/C [21] 0.2% | viability, T/C [22] 1.91% | viability, T/C (second compound 3.16 µM, first compound 0.00316 µM) 9.03% | viability, T/C (second compound 3.16 µM, first compound 0.01 µM) 2.69% | viability, T/C [23] 1.66% | viability, T/C [24] 0.35% | viability, T/C [25] 1.13% | viability, T/C [26] 1.82% | viability, T/C (second compound 10 µM, first compound 0.01 µM) 1.94% | viability, T/C [27] 1.92% | viability, T/C [28] 0.95% | viability, T/C [29] 2.93% | viability, T/C [30] 1.05%
< 3.16 nM: IC50 [1] | IC50 [2] | IC50 [3] | IC50 [4] | IC50 [5] | IC50 [6]

CC1COCCN1c1cc(C2(S(C)(=N)=O)CC2)nc(-c2ccnc3[nH]ccc23)n1 (stereo unspecified)
1760 nM and 1730 nM: IC50 (curve of compound)
inactive: viability, T/C (compound 0.0316 µM) 99.7% and 95.9% | viability, T/C (compound 0.1 µM) 91.5% and 81.3% | viability, T/C (compound 0.316 µM) 88.8% and 91.9% | viability, T/C (compound 1 µM) 70.2% and 70% | viability, T/C (compound 3.16 µM) 29.4% and 27.2%
active: viability, T/C (compound 10 µM) 9.11% and 6.62%

COC1C=CCC(C)C(C)S(=O)(=O)NC(=O)c2ccc3c(c2)N(CC2CCC21)CC1(CCCc2cc(Cl)ccc21)CO3 (stereo unspecified) + CN1CCN(c2cc(C(=O)Nc3cc4cc(-c5cnn(C)c5)ccc4cn3)ccn2)CC1
7920 nM: IC50 [2]
active: viability, T/C [19] 0.21% | viability, T/C [20] 2.53% | viability, T/C [21] 2.21% | viability, T/C [22] 1.57% | viability, T/C (second compound 1 µM, first compound 3.16 µM) 0.27% | viability, T/C (second compound 1 µM, first compound 10 µM) 1.2% | viability, T/C [23] 2.24% | viability, T/C [24] 3.21% | viability, T/C [25] 2.04% | viability, T/C [26] 1.78% | viability, T/C (second compound 3.16 µM, first compound 3.16 µM) 1.66% | viability, T/C (second compound 3.16 µM, first compound 10 µM) 1.86% | viability, T/C [27] 4.14% | viability, T/C [28] 0.77% | viability, T/C [29] 1.41% | viability, T/C [30] 2.69% | viability, T/C (second compound 10 µM, first compound 3.16 µM) 1.19% | viability, T/C (second compound 10 µM, first compound 10 µM) 0.32%
inactive: viability, T/C [7] 96.7% | viability, T/C [8] 99.5% | viability, T/C [9] 108% | viability, T/C [10] 105% | viability, T/C (second compound 0.0316 µM, first compound 3.16 µM) 81.2% | viability, T/C (second compound 0.0316 µM, first compound 10 µM) 48% | viability, T/C [11] 77.3% | viability, T/C [12] 87% | viability, T/C [13] 82.2% | viability, T/C [14] 80.7% | viability, T/C (second compound 0.1 µM, first compound 3.16 µM) 73.5% | viability, T/C (second compound 0.1 µM, first compound 10 µM) 44% | viability, T/C [15] 36% | viability, T/C [16] 35.3% | viability, T/C [17] 37% | viability, T/C [18] 32.4% | viability, T/C (second compound 0.316 µM, first compound 3.16 µM) 29.3% | viability, T/C (second compound 0.316 µM, first compound 10 µM) 13.3%
9330 nM: IC50 [1]
< 31.6 nM: IC50 [3] | IC50 [4] | IC50 [5] | IC50 [6]
